Assay results taken from US9138433B2, “Indole alkaloid compounds as melanogenesis promoters and uses thereof” (NEW YORK UNIVERSITY, priority 2010, dated 2015).

Tests used:
melan-a cells = assay: Melanin assay in cultured murine melanocytes (melan-a); format: cell-based; settings: melanin content, 72 hours incubation
Description: The Spectrum Collection library consisting of 2000 drug compounds or natural products was screened to identify novel pigmentation inhibitors or stimulators in cultured murine melanocytes (melan-a). Compounds were dissolved in dimethylsulfoxide (DMSO) to a final concentration of 10 mM. Screening was performed with cultured melanocytes in 24-well plates followed by melanin assay (see below). A minimum change of 50% in melanin formation was established as significant for a pigmentation inhibitor or stimulator. DMSO was used as a negative control and the widely used depigmenting agent, hydroquinone, was used as a positive control on every plate. Primary screening was performed at a final concentration of 1 μM and potential candidates from the primary screening were reconfirmed in duplicate at final concentrations of 1 and 5 μM.
Melan-a cells were plated at 5×10^4 cells per well in 1 ml of culture media in 24-well plates the day before adding the library compounds. All compounds were added at the indicated final concentrations. Cells were harvested after 72 hours of incubation, and melanin assay was performed.
For further test and mechanism of action studies, the compounds were purchased from either Sigma or MicroSource. These compounds were dissolved in dimethylsulfoxide (DMSO) to a final concentration of 10 mM, and were tested for their effect on melanin synthesis at the indicated final concentrations.
For the primary and secondary screening, cells were harvested and dissolved in 200 μl of 2N NaOH in 20% DMSO at 70° C. A 180-μl aliquot of the resulting solution was measured for absorbance at 490 nm.
Cells are harvested in extraction buffer (1% Triton X-100, 50 mM Tris, 2 mM EDTA, 150 mM NaCl, pH 7.5) containing a complete protease inhibitor cocktail (Roche). The lysates were centrifuged at 14,000 rpm for 10 minutes at 4° C. BCA protein assay kit (Pierce) was used to measure the protein concentrations of the supernatants, and bovine serum albumin was used as a standard. The remaining pellets were incubated with 100 μl ethanol-ether (1:1) for 10 minutes at room temperature. After removing the ethanol-ether, the pellets were dissolved in 200 μl of 2N NaOH in 20% DMSO at 70° C. A 180-μl aliquot of the resulting solution was measured for absorbance at 490 nm. The melanin contents were normalized to the total amount of protein.

[1] = system: Asian skin equivalent (MEL-A); assay: MelanoDerm pigmentation assay, Asian skin equivalent (MEL-A); format: cell-based, human
Description: MelanoDerm™, made by MatTek Corp., is a viable reconstituted three-dimensional human skin equivalent containing normal melanocytes and keratinocytes that are derived from African-American (MEL-B), Asian (MEL-A) or Caucasian (MEL-C) donors. Both MEL-A and MEL-B tissues were used in the current study, and they were maintained in the NMM-113 medium as recommended by the manufacturer.
Pubescine (from Sigma) was dissolved in 30% ethanol: 70% propylene glycol to a final concentration of 1.0 mM (equal to 356.6 μg/ml), and this was maintained constant and used on all samples tested. A 25 μl of its aliquot was applied topically to the MelanoDerm™ tissue (MEL-B) on Days 0, 1, 3, 6, 8 and 10. The MelanoDerm™ tissues were fed every other day with 5 ml fresh NMM-113. Prior to each application, the tissues were washed with 1 ml PBS to remove any residual test compound. Tissues were fixed on Days 10 and 13 for microscopic analysis and histological evaluation. In addition, duplicate tissues were frozen on Days 10 and 13 for the melanin assay.
Similar experiments were performed on Asian skin equivalent (MEL-A) except: the treatments were applied on Days 0, 1, 3, 6, 8, 10 and 13. Tissues were taken out on Days 13 and 16 for the various assays. […]
Procedure 1: the effects of pubescine on melanin synthesis in MEL-A or B were evaluated by light microscopy (views from the top surface of the tissue). […]

[2] = system: Tyr gene family proteins and gp100 in melan-a cells; assay: Cellular levels of Tyr gene family proteins and gp100 in melan-a cells (immunoblot); format: cell-based, murine; settings: various concentrations, 72 hrs, FIG. 3
Description: Melan-a cells were incubated with various concentrations of pubescine for 72 hrs. Cell lysates were prepared and separated by 7.5% sodium dodecyl sulfate-polyacrylamide gel and transferred to Immobilon-P membranes. Tyrosinase gene family proteins were detected with antibodies against each protein. The results are set forth in the gel of FIG. 3.

[3] = system: Tyr, Tryp-1 or Lamp-1 in melan-a cells; assay: Sub-cellular localization of Tyr, Tyrp-1, Lamp-1 in melan-a cells (immunofluorescence); format: cell-based, murine; settings: 10 μM, 72 hrs at 37° C., FIGS. 4A and 4B
Description: Cells were cultured on cover slips, incubated with or without 10 μM pubescine for 72 hrs at 37° C. The cells were fixed with −20° C. methanol for 5 min and stained by immunofluorescence with antibodies for Tyr, Tyrp-1 and/or Lamp-1. The slides were analyzed with a confocal microscope (LSM 510, Zeiss).

| Structure (SMILES) | % after treatment @ 1 μM (melan-a cells) | % after treatment @ 5 μM (melan-a cells) | Fontana-Masson staining, melanin content ([1]; Asian skin equivalent (MEL-A), FIG. 6) | Melanin content increase of Asian skin equivalent (MEL-A) ([1]; pubescine 1.0 mM topical, 25 μl, FIG. 7) | Cellular levels of tyrosinase family proteins and gp100 [2] | Sub-cellular localization of Tyr, Tryp-1 or Lamp-1 [3] |
| --- | --- | --- | --- | --- | --- | --- |
| COC(=O)[C@H]1[C@H]2C[C@H]3c4[nH]c5ccccc5c4CCN3C[C@@H]2CC[C@@H]1O [ID 1, Corynanthine] | 111% | 211% | – | – | – | – |
| CC[C@H]1[C@@H]2C[C@H]3[C@@H]4N(C)c5ccccc5[C@]45C[C@@H]([C@H]2[C@H]5O)N3[C@@H]1O [ID 2, Ajmaline, reference compound] | 117% | 206% | – | – | – | – |
| COC(=O)C1=CO[C@@H](C)[C@H]2CN3CCc4c([nH]c5ccccc45)[C@@H]3C[C@H]12 [ID 3, Ajmalicine, reference compound] | 106% | 133% | – | – | – | – |
| COC(=O)[C@H]1[C@H]2C[C@@H]3c4[nH]c5cc(OC)ccc5c4CCN3C[C@H]2C[C@@H](OC(=O)c2cc(OC)c(OC)c(OC)c2)[C@@H]1OC [ID 4, Reserpine, reference compound] | 117% | 133% | – | – | – | – |
| COc1ccc2c3c([nH]c2c1)[C@@H]1C[C@H]2[C@@H](C[C@@H](O)[C@H](OC)[C@H]2C(=O)O)CN1CC3 [ID 5, Reserpic Acid] | 111% | 217% | – | – | – | – |
| COC(=O)C1=CO[C@@H](C)[C@H]2CN3CCc4c([nH]c5cc(OC)ccc45)[C@@H]3C[C@H]12 [ID 6, Pubescine] | 172% | 267% | increase in the melanin content | ~40% | increases cellular levels of tyrosinase family proteins and gp100 in a dose-dependent manner | does not alter the sub-cellular localization |
